Values of other authors in patent US20120190646A1, “Compositions Comprising Thalidomide and Artemisinin for the Treatment of Cancer” (priority 2009, published 2012).

Conditions: multiple myeloma patients; thalidomide administered without prophylaxis; 'as high as'

VTE rates: ≤ 26%
SMILES: O=C1CCC(N2C(=O)c3ccccc3C2=O)C(=O)N1 (racemic) [thalidomide, 2-(2,6-dioxo-3-piperidinyl)-1H-isoindole-1,3(2H)-dione]
